# Test results from patent publication US12036212B2, “Enhancement of tumor response to chemotherapy by activation of the asmase/ceramide pathway through timed administration of a short-acting anti-angiogenic agent” (Memorial Sloan-Kettering Cancer Center, priority 2014, dated 2024).
# Columns and labels:
# [1] = in vivo; cited from earlier work
# BAEC = test: Apoptosis in vitro (Hoechst nuclear staining) in BAEC; type: cell-based, bovine; settings: 8 hours; for Effect on etoposide-induced apoptosis: BAEC pre-incubated 30 min with bFGF 2 ng/mL, VEGF 2 ng/mL or nystatin 30 μg/mL, etoposide 50 μM
# Procedure: Apoptosis was assessed in vitro by examining morphologic changes in nuclear chromatin using bis-benzimide trihydrochloride (Hoechst #33258; Sigma-Aldrich, Milwaukee WI). BAEC and HCAEC monolayer cultures were first detached using 0.25% trypsin and 0.02% EDTA in HBSS and then combined with the floating population of cells. The cell pellet was washed in PBS, resuspended in 3% paraformaldehyde, and incubated for 10 min at 22° C. Following the removal of fixative, cells were resuspended in PBS containing 8 μg/ml of Hoechst-33258. Following a 15-min incubation at 22° C., cells were placed on a glass slide, and scored for the incidence of apoptotic chromatin changes using fluorescence microscope.
# Since the ASMase/ceramide pathway is known to play a critical role in endothelial injury and dysfunction, BAEC and HCAEC were treated with paclitaxel (100 nM), etoposide (50 μM), and cisplatin (0.1-50 μM), and endothelial apoptosis was assessed.
# To set the basis for experiments involving evaluation of anti-angiogenic therapy in combination with chemotherapy, and the role of ASMase/ceramide pathway in this process, the effects of various factors on the chemotherapy induced cell death were assessed. BAEC were pre-incubated for 30 min with bFGF (2 ng/mL), VEGF (2 ng/mL) or nystatin (30 μg/mL) prior to treatment with etoposide (50 μM), and apoptosis was evaluated after 8 hours using bis-benzamide trihydrochloride staining (FIG. 3).
# ASMase = ASMase activity radioenzymatic assay in BAEC; type: cell-based, bovine; settings: etoposide 50 μM
# Procedure: (§1) BAEC were established from the intima of bovine aorta as described^1. Stock cultures were grown in 100-mm dishes in Dulbecco's modified Eagle's medium (DMEM) supplemented with glucose (1 g/liter), 5% heat-inactivated calf serum (CS), penicillin (50 units/ml), and streptomycin (50 μg/ml). Purified human recombinant bFGF (1 ng/ml; R&D Systems, Inc., Minneapolis, MN) was added every other day during the exponential growth phase. […] These plateau phase cells were either used for experiments, or further sub-cultured (up to a maximum of 10 times) at a split ratio of 1:8. For sub-culturing, monolayers were dissociated with STV (0.05% trypsin and 0.02% EDTA in PBS) for 2-3 min at 22° C., washed twice in 5% CS-DMEM, and resuspended in DMEM with supplements as above. These mild conditions of trypsinization were sufficient to detach cells but not injure, stimulate, or affect cell function in a detectable way. BAEC were maintained at 37° C. in 10% CO2 humidified incubators.
# ASMase activity was quantified by radioenzymatic assay using [^14C-methylcholine]sphingomyelin (Amersham) as substrate as described (Schissel et al. J Biol Chem, 271, 18431-18436, 1996). Cell lysates were incubated with [^14C-methylcholine]-sphingomyelin substrate (0.026 mCi/9.5 nmol) in 250 mM sodium acetate, pH 5.0 supplemented with 0.1% Triton X-100 and 1 mM EDTA or 0.1 mM ZnCl. Reactions were terminated after 1 h with CHCl3:MeOH:1N HCl (100:100:1, v/v/v), and [^14C-methylcholine]phosphocholine product in the aqueous layer of the Folch extract was quantified using a Beckman Packard 2200 CA Tricarb scintillation counter. For detection of ASMase activity in patients, 10 μl of serum was used.
# To test the effect of chemotherapy on ASMase signaling and ceramide production, BAEC were treated with paclitaxel (100 nM) and ASMase activity was determined by radioenzymatic assay (Rotolo et al, infra) using [^14C-methylcholine] sphingomyelin (Amersham) as substrate (FIG. 1A). Induction of ASMase activity was observed within 5 minutes after treatment, and the activation continued for 30 minutes. Ceramide generation was monitored using the diacylglycerol kinase assay (Stancevic et al. PLoS ONE 8, e69025, 2013). […] In further support of this, pre-incubation of BAEC with nystatin prior to treatment with chemotherapy inhibits chemotherapy-induced apoptosis (FIG. 3).
# (§2) To determine the generality of the results observed, experiments were carried out using an additional endothelial cell line, human coronary artery endothelial cells (HCAEC); experiments were also performed using a different chemotherapeutic agent. […] Next, HCAEC were treated with paclitaxel (100 nM) (data not shown) and etoposide (50 μM) (FIG. 1F), and ceramide generation was evaluated.
# To further establish the generality of ASMase activation by various chemotherapeutic agents, BAEC and HCAEC were treated with increasing doses of cisplatin (0.1-50 μM) (data not shown). […] The ASMase/ceramide pathway was activated by chemotherapeutic agents that belong to different classes of chemotherapeutic agents, such as: taxanes, topoisomerase inhibitors, and nucleoside analog metabolic inhibitors. Since such chemotherapy agents are characterized by distinct mechanisms of action in tumor cells, it is surprising that a group of such distinct agents converges on a common molecular (ASMase/ceramide) axis in endothelium. The present confirmation that distinct chemotherapeutic agents activate the ASMase/ceramide pathway permits the present inventors to take into account the results of experiments using single dose radiotherapy, which has been reported to activate the same pathway (Rao, S. S. et al., Axitinib sensitization of high Single Dose Radiotherapy. Radiotherapy and Oncology: Journal of the European Society for Therapeutic Radiology and Oncology 111, 88-93, doi:10.1016/j.radonc.2014.02.010 (2014)).
# Gemcitabine was able to activate ASMase in cultured endothelial cells. […]
# ceramide [2] = test: Ceramide generation (diacylglycerol kinase assay) in BAEC; type: cell-based, bovine; settings: etoposide 50 μM
# Procedure: as §1
# After treatment, cells were placed on ice, washed with cold PBS, and lipids were extracted by addition of scraped cells in methanol to an equal volume of chloroform and 0.6 volume of buffered saline/EDTA solution (135 mM NaCl, 4.5 mM KCl, 1.5 mM CaCl2), 0.5 mM MgCl2, 5.6 mM glucose, 10 mM HEPES pH 7.2, 10 mM EDTA). Lipids in the organic phase extract were dried under N2 and subjected to mild alkaline hydrolysis (0.1 N methanolic KOH for 1 hour at 37° C.) to remove glycerophospholipids. Samples were re-extracted, and the organic phase was dried under N2. Ceramide contained in each sample was resuspended in a 100 μl reaction mixture containing 150 μg of cardiolipin, 280 μM diethylenetriaminepentaacetic acid, 51 mM octyl-β-glucopyranoside (Calbiochem), 50 mM NaCl, 51 mM imidazole, 1 mM EDTA, 12.5 mM MgCl2, 2 mM dithiothreitol, 0.7% glycerol, 70 μM β-mercaptoethanol, 1 mM ATP, 10 μCi of [γ-^32P]ATP, 35 μg/ml Escherichia coli diacylglycerol kinase (Calbiochem) at pH 6.5. After 30 minutes at room temperature, the reaction was stopped by extraction of lipids with 1 ml of chloroform:methanol:1 N HCl (100:100:1), 170 μl of buffered saline solution (BSS) (135 mM NaCl, 1.5 mM CaCl2, 0.5 mM MgCl2, 5.6 mM glucose, and 10 mM HEPES (pH 72), and 30 μl of 100 mM EDTA. The lower organic phase was dried under N2. Ceramide-1 phosphate was resolved by thin-layer chromatography on silica gel 60 plates (Whatman) using a solvent system of chloroform:methanol:acetic acid (65:15:5, v/v/v) and detected by autoradiography, and incorporated ^32P was quantified by liquid scintillation counting. The level of ceramide was determined by comparison with a standard curve generated concomitantly of known amounts of ceramide.
# To test the effect of chemotherapy on ASMase signaling and ceramide production, BAEC were treated with paclitaxel (100 nM) and ASMase activity was determined by radioenzymatic assay (Rotolo et al, infra) using [^14C-methylcholine] sphingomyelin (Amersham) as substrate (FIG. 1A). […] Ceramide generation was monitored using the diacylglycerol kinase assay (Stancevic et al. PLoS ONE 8, e69025, 2013). […]
# as §2, with “evaluated. […]” for “evaluated.”
# ceramide [3] = test: Ceramide generation in HCAEC; type: cell-based, human; settings: paclitaxel 100 nM, etoposide 50 μM, cisplatin 0.1-50 μM
# Procedure: HCAEC were obtained from Clonetics™ Coronary Artery Endothelial Cell Systems (Cambrex Bio Science Inc.). For HCAEC culturing and sub-culturing Clonetics cell system components were used: EBM®-2, Endothelial Cell Basal Medium-2 with addition of Clonetics EGM-2-MV SingleQuots containing growth supplements (Cambrex) (Biomedical Technologies, Inc.). For sub-culturing, monolayers were dissociated with Clonetics® Trypsin/EDTA solution for 2-3 min at 22° C. at a split ratio of 1:4 to expand the cell population for experiments. HCAEC cultures were maintained at 37° C. in 5% CO2 humidified incubators.
# After treatment, cells were placed on ice, washed with cold PBS, and lipids were extracted by addition of scraped cells in methanol to an equal volume of chloroform and 0.6 volume of buffered saline/EDTA solution (135 mM NaCl, 4.5 mM KCl, 1.5 mM CaCl2), 0.5 mM MgCl2, 5.6 mM glucose, 10 mM HEPES pH 7.2, 10 mM EDTA). […] After 30 minutes at room temperature, the reaction was stopped by extraction of lipids with 1 ml of chloroform:methanol:1 N HCl (100:100:1), 170 μl of buffered saline solution (BSS) (135 mM NaCl, 1.5 mM CaCl2, 0.5 mM MgCl2, 5.6 mM glucose, and 10 mM HEPES (pH 72), and 30 μl of 100 mM EDTA. The lower organic phase was dried under N2. Ceramide-1 phosphate was resolved by thin-layer chromatography on silica gel 60 plates (Whatman) using a solvent system of chloroform:methanol:acetic acid (65:15:5, v/v/v) and detected by autoradiography, and incorporated ^32P was quantified by liquid scintillation counting. The level of ceramide was determined by comparison with a standard curve generated concomitantly of known amounts of ceramide.
# as §2, with “evaluated. […]” for “evaluated.”
# CRM = CRM detection by confocal microscopy in BAEC; type: cell-based, bovine; settings: nystatin 30 μg/mL 30 min pre-treatment, paclitaxel 100 nM
# Procedure: BAEC were grown on CC2-treated chamber slides (Nalge Nunc International Corp., Naperville, USA) and then exposed to etoposide or paclitaxel with or without pre-incubation with Nystatin (30 μg/ml, Sigma) for 30 min. BAEC were then washed in cold PBS, fixed for 15 min in fresh 2% paraformaldehyde, washed 2× with cold PBS, and blocked with 5% FBS in PBS for 20 min at room temperature. Cells were stained with anti-ceramide MID 15B4 IgM (Alexis Corporation) at 1:50 dilution for 1 hour at room temperature, washed 3× in PBS, and thereafter with Texas Red-conjugated secondary antibody (Jackson Immunoresearch Laboratories, Inc.) at 1:500 dilution for 1 hour at room temperature. Nonspecific fluorescence was excluded using isotype control IgM (BD Biosciences). Cells were washed 3×, stained with DAPI and mounted in 0.1% paraphenylenediamine. Fluorescence was detected using Leica TCS SP2 AOBS 1- and 2-photon laser scanning confocal (DMRXA2 upright stand) microscope coupled with MetaMorph 7.5 (Molecular Devices). Number of CRMs in membranes of endothelial cells was analyzed using MetaMorph 7.5 software that allowed outlining of regions containing CRMs based on two criteria: 1) CRM size (≥500 nm); 2) Intensity of ceramide staining. Mice: asmase^+/+ and asmase^−/− mice, maintained in a SCID background, were propagated using heterozygous breeding pairs and genotyped as previously described (Santana et al. Cell, 86, 189-199, 1996; Grassme et al. Nat Med 9, 322-330 (2003). 6-12 week-old C57BL6/SV129 male mice, purchased from The Jackson Laboratory (Bar Harbor).
# To test the effect of chemotherapy on ASMase signaling and ceramide production, BAEC were treated with paclitaxel (100 nM) and ASMase activity was determined by radioenzymatic assay (Rotolo et al, infra) using [^14C-methylcholine] sphingomyelin (Amersham) as substrate (FIG. 1A). Induction of ASMase activity was observed within 5 minutes after treatment, and the activation continued for 30 minutes. Ceramide generation was monitored using the diacylglycerol kinase assay (Stancevic et al. PLoS ONE 8, e69025, 2013). […]
molecule,measurement,setting,value
Clc1ccc(Nc2nnc(Cc3ccncc3)c3ccccc23)cc1 [vatalanib],Average half-life,[1],4.7 h
CNC(=O)c1cc(Oc2ccc(NC(=O)Nc3ccc(Cl)c(C(F)(F)F)c3)cc2)ccn1 [sorafenib],Average half-life,[1],25 to 48 h
CNC(=O)c1ccccc1Sc1ccc2c(/C=C/c3ccccn3)n[nH]c2c1 [axitinib],Average half-life,[1],2.5 to 6 h
CCN(CC)CCNC(=O)c1c(C)[nH]c(/C=C2\C(=O)Nc3ccc(F)cc32)c1C [sunitinib],Average half-life,[1],40 to 60 h
anginex,Half-life,[1],~0.833 h
COc1cc2c(Oc3ccc4[nH]c(C)cc4c3F)ncnc2cc1OCCCN1CCCC1 [cediranib],Average half-life,[1],22 to 27 h
"bFGF: basic fibroblast growth factor, pro-angiogenic factor",Effect on etoposide-induced apoptosis,BAEC,substantially inhibits etoposide-induced apoptosis
COc1cc([C@@H]2c3cc4c(cc3[C@@H](O[C@@H]3O[C@@H]5CO[C@@H](C)O[C@H]5[C@H](O)[C@H]3O)[C@H]3COC(=O)[C@H]23)OCO4)cc(OC)c1O [etoposide],ASMase activation remained for,ASMase,30 min
same,ASMase activation,"ASMase; cisplatin 0.1-50 μM, gemcitabine 100 nM time-course",activation of ASMase
same,Apoptotic response,"BAEC; bovine endothelial cells, cisplatin up to 50 μM, etoposide 50 μM alone",significantly induces apoptosis
same,Ceramide formation remained for,ceramide [2],30 min
same,Ceramide generation,"ceramide [2]; paclitaxel 100 nM, cisplatin 0.1-50 μM",ceramide formation within a few minutes
same,Ceramide generation,ceramide [3],leads to the generation of ceramide
Cc1ccc(C(=O)Nc2ccc(CN3CCN(C)CC3)c(C(F)(F)F)c2)cc1C#Cc1cnc2cccnn12 [ponatinib],Average half-life,[1],24 h
C[C@@H]1[C@H](O)[C@@H](C)/C=C/C=C/CC/C=C/C=C/C=C/C=C/C(O[C@H]2O[C@H](C)[C@@H](O)[C@H](N)[C@@H]2O)CC2O[C@](O)(CC(O)C(O)CCC(O)CC(O)CC(O)CC(=O)O[C@H]1C)CC(O)C2C(=O)O (some centres unmarked) [nystatin],Effect on etoposide-induced apoptosis,BAEC,substantially inhibits etoposide-induced apoptosis
same,Effect on paclitaxel-induced CRM formation,CRM,prevented the formation of CRMs
COc1cc2nccc(Oc3ccc(NC(=O)C4(C(=O)Nc5ccc(F)cc5)CC4)cc3)c2cc1OC [cabozantinib],Average half-life,[1],55 h
VEGF,Effect on etoposide-induced apoptosis,BAEC,substantially inhibits etoposide-induced apoptosis
Cc1ccc(Nc2nccc(N(C)c3ccc4c(C)n(C)nc4c3)n2)cc1S(N)(=O)=O [pazopanib],Average half-life,[1],about 30 hours
Cc1[nH]c(/C=C2\C(=O)Nc3ccccc32)c(C)c1CCC(=O)O [SU6668],Average half-life,[1],3.6 h
